Assay results as given in ChEMBL document CHEMBL5729088, “Thienodiazepine derivatives and application thereof” (2022).

Legend:
[1] = target: T1, Bromodomain-containing protein 4 (Homo sapiens, UniProt O60885); experiment: (§1) BRD4 Biochemical Activity Test: The experiment plate was a plate that contained a gradient concentration of the compound and a corresponding DMSO solution and was prepared with ECHO before the experiment:a) The experiment plate was taken out, and 5 μL/well of “solution A” (protein solution) was added to columns 2-23 of the experiment plate, then 5 μL/well of 1× assay buffer was added to columns 1 and 24 of the experiment plate, and columns 1 and 24 were used as Min control in the experiment system;b) Centrifugation at 1000 rpm was carried out for 30 seconds;c) The plate was incubated at 23° C. for 20 minutes;d) After 20 minutes of incubation, 5 μL/well of “solution B” (polypeptide solution) was added to columns 1-24 of the experiment plate;e) Centrifugation at 1000 rpm was carried out for 30 seconds;f) The plate was incubated at 23° C. for 20 minutes;g) After 20 minutes of incubation, 5 μL/well of “solution C” (test reagent solution) was added to columns 1-24 of the experiment plate;h) Centrifugation at 1000 rpm was carried out for 30 seconds;i) The plate was incubated at 23° C. for 40 minutes;j) The experiment plate was placed on EnVision to read the plate.
[2] = target: T1, Bromodomain-containing protein 4; experiment: as §1; remark: listed apart in the source

SMILES | IC50 [1] | IC50 [2]
Cc1sc2c(c1C)C(c1ccc(Cl)cc1)=N[C@@H](CC(=O)Nc1ccc3c(c1)CS(=O)(=O)C3)c1nnc(C)n1-2 | 14 nM | 49 nM
Cc1sc2c(c1C)C(c1ccc(Cl)cc1)=N[C@@H](CC(=O)Nc1ccc(O)c3c1COC3)c1nnc(C)n1-2 | 21 nM | 100 nM
